One data set deals with HepG2 cells. Put plainly: HepG2 cytotoxicity counter-screen. Particulars: cytotoxic activity against HepG2 cells. A general note: A counterscreen serves to expose hits that act by an unwanted route or on another target.
In data set [1] the test system is P. falciparum female gametocytes. In words: P. falciparum Dual Gamete Formation Assay (PfDGFA), female readout (Pfs25-positive female gametes). The following applies: for HitlevelF: number of replicates with >50% inhibition in the female readout; for Selectivity ratio F: HepG2 Tox50 versus female IC50; for IC50: PfDGFA, 24 h incubation with gametocytes before induction, female gamete readout, read-out: Female IC50. It counts as cell-based, Plasmodium falciparum NF54. Summed up:
(§1)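 Mature NF54 gametocytes (day 14) were incubated with compound for 24 h at 37°C under 1% O2/3% CO2, then triggered with xanthurenic acid ookinete medium plus Cy3-anti-Pfs25. Exflagellation was imaged by brightfield; after a further 24 h at 28°C, Pfs25-positive female gametes were imaged by fluorescence and counted by automated image analysis.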

Data set [2] deals with P. falciparum male gametocytes. Put plainly: P. falciparum Dual Gamete Formation Assay (PfDGFA), male readout (exflagellation). In kind it is cell-based, Plasmodium falciparum NF54. Particulars: for HitlevelM: number of replicates with >50% inhibition in the male readout; for Selectivity Ratio M: HepG2 Tox50 versus male IC50; for IC50: PfDGFA, 24 h incubation with gametocytes before induction, exflagellation readout, read-out: Male IC50. Summed up:
as §1

Where [3] appears, read: PfDGFA at 2µM, 24h preincubation with gametocytes, average of replicates.
Where [4] appears, read: PfDGFA at 2µM, 24h preincubation with gametocytes, replicate R1.
Where [5] appears, read: PfDGFA at 2µM, 24h preincubation with gametocytes, replicate R3.
Where [6] appears, read: PfDGFA at 2µM, 24h preincubation with gametocytes, replicate R4.

Read-outs that look alike come from different tables or passages of the source.

In the data set with HepG2 cells, `CN1CCN(c2ccc(Nc3c4ccccc4nc4ccccc34)cc2)CC1` [TCMDC-123912] registered a Tox50 of 26.65 µM. Further, the HitlevelF in data set [1] (2µM, 24h preincubation) is recorded as 0. Also, in data set [1], the “Selectivity ratio F” value is listed as 3.01. The inhibition at 2 µM in data set [1] (Plasmodium falciparum, 2µM, 24h preincubation with gametocytes prior to induction of gametogenesis, average of replicates, read-out: Average inhibition female (%)) stood at 9.1%; in data set [1] (Plasmodium falciparum, 2µM, 24h preincubation with gametocytes prior to induction of gametogenesis, replicate R1, read-out: % inhibition female (individual replicates) R1), 23.8%; in data set [1] (Plasmodium falciparum, 2µM, 24h preincubation with gametocytes prior to induction of gametogenesis, replicate R2, read-out: % inhibition female (individual replicates) R2), 8%; in data set [1] (Plasmodium falciparum, 2µM, 24h preincubation with gametocytes prior to induction of gametogenesis, replicate R3, read-out: % inhibition female (individual replicates) R3), 0.7%; in data set [1] (Plasmodium falciparum, 2µM, 24h preincubation with gametocytes prior to induction of gametogenesis, replicate R4, read-out: % inhibition female (individual replicates) R4), 4.1%; in data set [2] (Plasmodium falciparum, 2µM, 24h preincubation with gametocytes prior to induction of gametogenesis, average of replicates, read-out: Average inhibition male (%)), 62.8%. For the same compound, the inhibition at 2 µM in data set [2] (Plasmodium falciparum, 2µM, 24h preincubation with gametocytes prior to induction of gametogenesis, replicate R1, read-out: % inhibition male (individual replicates) R1) stood at 83%; in data set [2] (Plasmodium falciparum, 2µM, 24h preincubation with gametocytes prior to induction of gametogenesis, replicate R2, read-out: % inhibition male (individual replicates) R2) it was 83.6%; in data set [2] (Plasmodium falciparum, 2µM, 24h preincubation with gametocytes prior to induction of gametogenesis, replicate R3, read-out: % inhibition male (individual replicates) R3) it was 12.9%; in data set [2] (Plasmodium falciparum, 2µM, 24h preincubation with gametocytes prior to induction of gametogenesis, replicate R4, read-out: % inhibition male (individual replicates) R4), 71.6%. The results for the IC50 in data set [1] (Plasmodium falciparum) and in data set [2] (Plasmodium falciparum) were 8840 nM and 590 nM, respectively. This compound registered a HitlevelM in data set [2] (2µM, 24h preincubation) of 3. Also, the “Selectivity Ratio M” value in data set [2] came out at 45.1.
Regarding `COc1ccc(C[C@H](N)C(=O)N[C@H]2[C@@H](O)[C@H](n3cnc4c(N(C)C)ncnc43)O[C@@H]2CO)cc1.Cl` [TCMDC-123927], the Tox50 with HepG2 cells is 2.01 µM. Further, in data set [1], the “Selectivity ratio F” value turned out to be 0.5 and the IC50 came to 4000 nM. Besides, the “Average inhibition female (%)” value in data set [1] (setting [3]) was determined as 38.8%. Moreover, in data set [1] (setting [4]), the “% inhibition female (individual replicates) R1” value is reported as 27.9%. The “% inhibition female (individual replicates) R3” value in data set [1] (setting [5]) was 10.7%. In addition, in data set [1] (setting [6]), the “% inhibition female (individual replicates) R4” value was 72.0%. For the same compound, in data set [1] (2µM), the HitlevelF is listed as 1. In data set [2], the “Selectivity Ratio M” value came out at 4.87 and the IC50 was determined as 410 nM. For the same compound, the “Average inhibition male (%)” value in data set [2] (setting [3]) is 79.6%. Moreover, the “% inhibition male (individual replicates) R1” value in data set [2] (setting [4]) was found to be 87.8%. Further, the “% inhibition male (individual replicates) R3” value in data set [2] (setting [5]) was found to be 64.7%. Besides, the “% inhibition male (individual replicates) R4” value in data set [2] (setting [6]) is on record as 82.2%. Moreover, the HitlevelM in data set [2] (2µM) is 4.
On to `CCc1cc2c(Sc3nnc(N)s3)ncnc2s1` [TCMDC-123993], for which, in the data set with HepG2 cells, the Tox50 stood at 61 µM. In addition, the “Selectivity ratio F” value in data set [1] is 82.32. For the same compound, the inhibition at 2 µM was determined as 62.7% in data set [1] (Plasmodium falciparum, PfDGFA at 2µM, 24h preincubation with gametocytes, average of replicates, read-out: Average inhibition female (%)); 49.4% in data set [1] (Plasmodium falciparum, PfDGFA at 2µM, 24h preincubation with gametocytes, replicate R1, read-out: % inhibition female (individual replicates) R1); 83% in data set [1] (Plasmodium falciparum, PfDGFA at 2µM, 24h preincubation with gametocytes, replicate R2, read-out: % inhibition female (individual replicates) R2); 66.2% in data set [1] (Plasmodium falciparum, PfDGFA at 2µM, 24h preincubation with gametocytes, replicate R3, read-out: % inhibition female (individual replicates) R3); 52.3% in data set [1] (Plasmodium falciparum, PfDGFA at 2µM, 24h preincubation with gametocytes, replicate R4, read-out: % inhibition female (individual replicates) R4); 88.1% in data set [2] (Plasmodium falciparum, PfDGFA at 2µM, 24h preincubation with gametocytes, average of replicates, read-out: Average inhibition male (%)). For the same compound, the inhibition at 2 µM is 91.2% in data set [2] (Plasmodium falciparum, PfDGFA at 2µM, 24h preincubation with gametocytes, replicate R1, read-out: % inhibition male (individual replicates) R1); 88.6% in data set [2] (Plasmodium falciparum, PfDGFA at 2µM, 24h preincubation with gametocytes, replicate R2, read-out: % inhibition male (individual replicates) R2); 87.9% in data set [2] (Plasmodium falciparum, PfDGFA at 2µM, 24h preincubation with gametocytes, replicate R3, read-out: % inhibition male (individual replicates) R3); 84.9% in data set [2] (Plasmodium falciparum, PfDGFA at 2µM, 24h preincubation with gametocytes, replicate R4, read-out: % inhibition male (individual replicates) R4). Moreover, the IC50 stood at 740 nM in data set [1] (Plasmodium falciparum) and 980 nM in data set [2] (Plasmodium falciparum). Also, the HitlevelF in data set [1] (2µM) was found to be 3. In data set [2], the “Selectivity Ratio M” value was determined as 62.08. The compound further registered a HitlevelM in data set [2] (2µM) of 4.
In the data set with HepG2 cells, `[O-][s+]1c(Cl)c(-c2ccc(Cl)cc2)c2ccc(Cl)cc21` (stereo not shown) [TCMDC-124011] came in with a Tox50 of 17.6 µM. Besides, in data set [1], the “Selectivity ratio F” value worked out at 125.38. Besides, the inhibition at 2 µM in data set [1] (Plasmodium falciparum, 2µM, 24h preincubation with gametocytes, average of replicates, read-out: Average inhibition female (%)) amounted to 46.7%; in data set [1] (Plasmodium falciparum, 2µM, 24h preincubation with gametocytes, replicate R1, read-out: % inhibition female (individual replicates) R1), 29.4%; in data set [1] (Plasmodium falciparum, 2µM, 24h preincubation with gametocytes, replicate R2, read-out: % inhibition female (individual replicates) R2), 65.7%; in data set [1] (Plasmodium falciparum, 2µM, 24h preincubation with gametocytes, replicate R3, read-out: % inhibition female (individual replicates) R3), 37%; in data set [1] (Plasmodium falciparum, 2µM, 24h preincubation with gametocytes, replicate R4, read-out: % inhibition female (individual replicates) R4), 54.7%; in data set [2] (Plasmodium falciparum, 2µM, 24h preincubation with gametocytes, average of replicates, read-out: Average inhibition male (%)), 99.1%. For the same compound, the inhibition at 2 µM in data set [2] (Plasmodium falciparum, 2µM, 24h preincubation with gametocytes, replicate R1, read-out: % inhibition male (individual replicates) R1) was 99.4%; in data set [2] (Plasmodium falciparum, 2µM, 24h preincubation with gametocytes, replicate R2, read-out: % inhibition male (individual replicates) R2), 99.6%; in data set [2] (Plasmodium falciparum, 2µM, 24h preincubation with gametocytes, replicate R3, read-out: % inhibition male (individual replicates) R3), 98.6%; in data set [2] (Plasmodium falciparum, 2µM, 24h preincubation with gametocytes, replicate R4, read-out: % inhibition male (individual replicates) R4) it was 98.9%. The IC50 in data set [1] (Plasmodium falciparum) and in data set [2] (Plasmodium falciparum) was 140 nM throughout. Moreover, the “Selectivity Ratio M” value in data set [2] is 123.92.

What is called inhibition is the relative decrease from the control value, in per cent. The IC50 is the midpoint of a concentration-inhibition curve.

The values above are taken from PMC10584170, “Machine learning-based phenotypic imaging to characterise the targetable biology of Plasmodium falciparum male gametocytes for the development of transmission-blocking antimalarials” (PLOS Pathogens, 2023).
